Experimental data from PMC3927474, “Whole body synthesis rates of DHA from α-linolenic acid are greater than brain DHA accretion and uptake rates in adult rats” (Journal of Lipid Research, 2014).

How the values were obtained:
[1] = rats; cited from earlier work
[2] = Whole body fatty acids by GC-FID, balance study; type: in vivo, rat; conditions: 15 wk diet
Procedure: Carcasses were thawed overnight in a refrigerator at 3°C, cut into pieces, and passed through a #12 hand grinder. After the whole body had passed through the grinder once, the homogenate was mixed together by hand and passed at least one more time through the grinder until the mixture was sufficiently homogeneous. Due to the small size of the pups all of the 21-day-old pup bodies were passed through the grinder together.
A portion of the whole body homogenate was weighed and further homogenized (done in duplicate for each 18-week-old rat and the baseline homogenate) using a Polytron benchtop homogenizer (Brinkman Instruments, Toronto, ON, Canada) in a mixture of chloroform:methanol:0.88%KCl (2:1:0.8 by volume) ([28]). The mixture was centrifuged at 500 g for 10 min, and the chloroform layer was extracted. New chloroform was added to the remaining aqueous phase, the mixture was once again centrifuged, and the chloroform layer was extracted and added to the previously extracted chloroform layer. This total lipid extract (TLE) was evaporated under N2, reconstituted in a known volume of chloroform, and stored under N2 at −80°C until further analysis.
A known amount of heptadecanoic acid (17:0; Nu-Check Prep, Elysian, MN) was added to the TLE. Samples were transmethylated using 14% boron trifluoride in methanol at 100°C for 1 h. Fatty acid methyl esters (FAMEs) were extracted with hexane and quantified using GC-FID. FAMEs were analyzed using a Varian-430 gas chromatograph (Varian, Lake Forest, CA) equipped with a Varian FactorFour capillary column (VF-23ms; 30 m × 0.25 mm interior diameter × 0.25 μm film thickness) and a FID. Samples were injected in splitless mode. The injector and detector ports were set at 250°C. […] The carrier gas was helium, set to a constant flow rate of 0.7 ml/min. Peaks were identified by retention times of authentic FAME standards (Nu-Chek Prep). The concentration of each fatty acid was calculated by comparison with the internal standard (17:0) ([29]). The concentrations were expressed on a per gram basis then multiplied by total weight of the tissue to determine the total amount of each fatty acid in the tissue.

Compound: CC/C=C\C/C=C\C/C=C\CCCCCCCC(=O)O [ALA, α-linolenic acid]
- DHA synthesis rate from ALA (steady-state infusion) [1]: 9.8 µmol/day
- Whole body fatty acids: 12:0 [2]: 23532 µmol
- Whole body fatty acids: 14:0 [2]: 17606 µmol
- Whole body fatty acids: 14:1n-7 [2]: 1331 µmol
- Whole body fatty acids: 16:0 [2]: 44604 µmol
- Whole body fatty acids: 16:1n-7 [2]: 16111 µmol
- Whole body fatty acids: 18:0 [2]: 6101 µmol
- Whole body fatty acids: 18:1n-7 [2]: 7553 µmol
- Whole body fatty acids: 18:1n-9 [2]: 38781 µmol
- Whole body fatty acids: 18:2n-6 [2]: 29104 µmol
- Whole body fatty acids: 18:3n-3 [2]: 1557 µmol
- Whole body fatty acids: 18:3n-6 [2]: 67 µmol
- Whole body fatty acids: 20:1n-9 [2]: 189 µmol
- Whole body fatty acids: 20:2 [2]: 194 µmol
- Whole body fatty acids: 20:3n-3 [2]: 137 µmol
- Whole body fatty acids: 22:4n-6 [2]: 155 µmol
- Whole body fatty acids: 22:5n-3 [2]: 101 µmol
- Whole body fatty acids: 22:5n-6 [2]: 124 µmol
- Whole body fatty acids: ARA (20:4n-6) [2]: 1954 µmol
- Whole body fatty acids: DHA (22:6n-3) [2]: 481 µmol
- Whole body fatty acids: EPA (20:5n-3) [2]: 76 µmol
